Our source for the TGI values is PubChem BioAssay (NCI).

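Following 48 hours of exposure in 96-well plates, responses at five concentrations were used to interpolate endpoints linearly. TGI is the concentration that stops growth completely.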 A value given as a limit tells only on which side of the number the result lay.

What all share (assay): NCI tumour cell line growth inhibition, 48 h
Test [1] relates to NCI-H23 lung.
Test [2] concerns SN12C renal.
The test system of test [3] is CAKI-1 renal.
The test system of test [4] is 786-0 renal.
In test [5] the test system is BT-549 breast.
Test [6] concerns SR leukemia.
In test [7] the test system is M14 melanoma.
In test [8] the test system is U251 CNS.
Test [9] has as its system RXF 393 renal.
For test [10], the system named is HOP-92 NSCLC.
The subject of test [11] is NCI/ADR-RES ovarian.

Consider `O=c1cc(-c2ccc(F)cc2)[nH]c2ncc(Cl)cc12`, for which the TGI was greater than 100 µM in test [1]; greater than 100 µM in test [2]; greater than 100 µM in test [3]; greater than 100 µM in test [4]; greater than 100 µM in test [5]; 23.7 µM in [6]. For the same molecule, the TGI was greater than 100 µM in test [7]; greater than 83.4 µM in test [8]; 89.2 µM in [9]; 65.4 µM in [10]; greater than 88 µM in [11].
Take `COC(CNC(=O)C(C)NC(=O)CCc1ccccc1)OC` (stereo unspecified): the TGI in test [1], in test [2], in test [3], in [4], in test [5] and in test [6] was greater than 100 µM throughout. For the same molecule, the TGI in test [7], in test [8], in test [9], in test [10] and in test [11] was greater than 100 µM each time.
For `COc1cc(/C=C2\C(=O)N(c3ccccc3)C(c3ccccc3)S2(=O)=O)cc(OC)c1OC` (stereo unspecified), the TGI in [1], in [2], in [3], in test [4], in [5] and in [6] was greater than 100 µM throughout. Besides, the TGI was greater than 100 µM in test [7]; greater than 100 µM in test [8]; 92.2 µM in test [9]; greater than 100 µM in test [10]; greater than 100 µM in test [11].
For the molecule `O=C(NNC(=S)Nc1cccc(Cl)c1)c1cc(-c2ccccc2)nc2ccccc12`, the TGI in test [1] was determined as 34.4 µM; in test [2], 37.1 µM; in test [3] it was 43.1 µM; in [4], 31.2 µM; in [5] it was 34.3 µM; in test [6], 49.9 µM. Also, the TGI in test [7] came to 33.7 µM; in test [8] it was 30.4 µM; in test [9], 32.7 µM; in test [10], 30.2 µM; in [11], 56.2 µM.
On to `CC(C)(C)OC(=O)NC(Cc1ccc(OCc2ccccc2)cn1)C(=O)N1CCCCC1` (stereo unspecified), for which the TGI is greater than 100 µM in [1]; greater than 100 µM in test [2]; greater than 100 µM in test [3]; greater than 100 µM in test [4]; 60.7 µM in [5]; 93 µM in test [6]. Besides, the TGI in test [7] is greater than 100 µM; in [8] it was greater than 100 µM; in [9], 65.3 µM; in [10], greater than 100 µM; in [11], 59.2 µM.
Take `C=CC(CCc1ccc(C(=O)OCC)cc1)c1c(N)nc(N)[nH]c1=O` (stereo unspecified): the TGI in [1], in test [2], in test [3], in [4], in test [5] and in test [6] was greater than 100 µM in each case. In addition, the TGI was greater than 100 µM in test [7]; greater than 100 µM in [8]; greater than 100 µM in test [9]; 83.8 µM in test [10]; greater than 100 µM in [11].
As for `c1ccc2c(c1)ccn2CCc1c[nH]c2ccccc12`, the TGI in test [1], in test [2], in test [3], in [4], in test [5] and in test [6] was greater than 10 µM in each case. In addition, the TGI in test [7], in test [8], in [9], in test [10] and in [11] was greater than 10 µM in each case.
`Nc1cc2[nH]c(=O)c(=O)[nH]c2cc1N`: the TGI in test [1], in test [2], in [3], in [4], in test [5] and in test [6] was greater than 100 µM each time. Also, the TGI in test [8], in test [9], in test [10] and in test [11] was greater than 100 µM each time.
`O=C1CSC(c2cccc(Oc3ccccc3)c2)N1c1ccc(Cl)cc1` (stereo unspecified): the TGI in test [1] was greater than 100 µM; in test [2], greater than 100 µM; in [3], greater than 100 µM; in test [4], greater than 100 µM; in test [5], greater than 100 µM; in test [6], 46.9 µM. Moreover, the TGI in test [7] was greater than 100 µM; in [8] it was greater than 100 µM; in test [9], 73.3 µM; in test [10] it was 65.7 µM; in [11] it was greater than 100 µM.
For the molecule `NN/C(=N\S(=O)(=O)c1cc2ccccc2s1)Nc1ccc(Cl)cc1`, the TGI in test [1] is 41.4 µM; in test [2] it was 39 µM; in [3] it was 39.4 µM; in [4] it was 35.4 µM; in test [5], 35.6 µM; in test [6], 73.9 µM. Moreover, the TGI in test [7] was 37.9 µM; in test [8] it was 34.5 µM; in test [9], 29.6 µM; in [10], 39.6 µM; in [11], 46.4 µM.
In the case of `CCOC(=O)N/N=C(/N)c1cccc([N+](=O)[O-])c1`, the TGI in test [1], in test [2], in [3], in test [4], in test [5] and in test [6] was greater than 100 µM throughout. Also, the TGI in [7], in [8], in [9], in test [10] and in test [11] was greater than 100 µM each time.
For the molecule `C(=Nc1ccc(-c2nc3ccccc3[nH]2)cc1)c1cccs1`, the TGI in test [1] was greater than 100 µM; in test [2], greater than 100 µM; in [3], greater than 100 µM; in test [4], greater than 100 µM; in test [5], 86.4 µM; in [6], greater than 100 µM. Besides, the TGI in test [7] is greater than 100 µM; in test [8], greater than 100 µM; in test [9] it was greater than 100 µM; in [10], 98.2 µM; in test [11] it was greater than 100 µM.
Regarding `CC1(C)NC2C(=O)c3c([nH]c4ccccc34)[C@]3(C)CCC1CC23` (stereo partly specified), the TGI in test [1], in test [2], in [3], in [4], in test [5] and in test [6] was greater than 100 µM throughout. Moreover, the TGI in test [8], in test [9], in test [10] and in test [11] was greater than 100 µM in each case.
Take `O=C1C(CN2CCCCC2)CCC1CN1CCCCC1` (stereo unspecified): the TGI in test [1] is 53.7 µM; in [2], 45.5 µM; in test [3], 25 µM; in test [4], 41.7 µM; in test [5] it was 34 µM; in test [6] it was 3.75 µM. Besides, the TGI in test [7] was 32 µM; in test [8], greater than 73.2 µM; in [9] it was 28.3 µM; in test [10] it was 54.6 µM; in [11], 64.2 µM.
In the case of `COc1cc(CNCc2cc(OC)c(OC)c(OC)c2)cc(OC)c1OC`, the TGI in test [1] was greater than 10 µM; in test [2] it was greater than 10 µM; in test [3], greater than 10 µM; in test [4] it was greater than 10 µM; in test [5], greater than 10 µM; in test [6] it was greater than 9.12 µM. The TGI in test [7], in [8], in [9], in test [10] and in test [11] was greater than 10 µM each time.
As for `CC1=NNC(N)=N/C1=C\C(Sc1ccc(Cl)cc1)c1ccc([N+](=O)[O-])cc1` (stereo unspecified), the TGI in test [1], in test [2], in [3], in test [4], in [5] and in test [6] was greater than 100 µM each time. Moreover, the TGI in test [7], in [8], in [9], in [10] and in test [11] was greater than 100 µM throughout.
As for `COc1cccc(-c2ccc3c4c2O[C@H]2C(=O)CC[C@@]5(O)[C@@H](C3)N(CC3CC3)CC[C@]425)c1`, the TGI was determined as 64.8 µM in test [1]; 41.4 µM in test [2]; 31 µM in test [3]; 32.1 µM in test [4]; 35.1 µM in test [5]; 37.8 µM in test [6]. Moreover, the TGI turned out to be 28.1 µM in test [7]; 29.9 µM in test [8]; 21.8 µM in test [9]; 38.4 µM in test [10]; 38.8 µM in [11].
Consider `COc1cc(/C=C2/C[C@H]3[C@@H]4CC=C5C[C@@H](O)CC[C@]5(C)[C@H]4CC[C@]3(C)NC2=O)cc(OC)c1OC`, for which the TGI in [1] is greater than 62.7 µM; in test [2], greater than 64.2 µM; in [3], greater than 59.9 µM; in test [4], 57.1 µM; in test [5], 63 µM; in test [6], greater than 100 µM. Also, the TGI in test [7] was greater than 100 µM; in test [8] it was greater than 60.1 µM; in test [9], 42.3 µM; in test [10], 25 µM; in [11], greater than 65.2 µM.
As for `CCOC(=O)c1nc2ccc(C(F)(F)F)cc2nc1NCc1cc(OC)c(OC)c(OC)c1`, the TGI in [1] was greater than 100 µM; in [2] it was greater than 100 µM; in [3] it was greater than 100 µM; in test [4], greater than 100 µM; in [5], greater than 100 µM; in test [6], 48.5 µM. In addition, the TGI in test [7], in test [9], in test [10] and in [11] was greater than 100 µM in each case.
Turning to `CCN(CC)C(=O)Cn1c(C)cc2ccccc21`, the TGI in test [1], in test [2], in test [3], in [4], in test [5] and in [6] was greater than 100 µM in each case. Moreover, the TGI in test [7], in test [8], in test [9], in test [10] and in test [11] was greater than 100 µM each time.
As for `Cc1cc(S(=O)(=O)N=C2N(Cc3ccccc3)CCN2Cc2ccccc2)c(S)cc1Cl`, the TGI in test [1], in [2], in [3], in [4], in test [5] and in test [6] was greater than 100 µM throughout. Moreover, the TGI in test [7], in [8], in test [9], in [10] and in test [11] was greater than 100 µM each time.
As to `CCN(CC)CCNc1nc2ccc([N+](=O)[O-])cc2[n+]([O-])n1`, the TGI in [1] was 47.4 µM; in [2] it was 54.9 µM; in [3] it was greater than 100 µM; in [4] it was greater than 100 µM; in [5], greater than 100 µM; in test [6] it was greater than 100 µM. The TGI in test [7] was 41.2 µM; in test [8], 77.2 µM; in test [9], greater than 100 µM; in [10], greater than 100 µM; in test [11] it was 70.5 µM.
As to `O=C(N/N=C/c1ccccc1)c1c(-c2cccnc2)cnc2ccccc12`, the TGI in test [1], in [2], in test [3], in [4], in test [5] and in test [6] was greater than 100 µM throughout. Besides, the TGI in test [7], in test [8], in test [9], in test [10] and in test [11] was greater than 100 µM throughout.
Take `Cn1cc(NC(=O)c2cc(NC(=O)CN=C(N)N)cn2C)cc1C(=O)NCCC(=N)N`: the TGI in test [1], in test [2], in test [3], in [4], in test [5] and in [6] was greater than 100 µM throughout. In addition, the TGI in test [7], in test [8], in [9], in [10] and in test [11] was greater than 100 µM each time.
Take `COc1cc(C(=O)N(Cc2cccnc2)C(=S)N(Cc2cccnc2)C(=O)c2cc(OC)c(OC)c(OC)c2)cc(OC)c1OC`: the TGI in [1] is greater than 100 µM; in test [2], greater than 100 µM; in test [3], greater than 100 µM; in [4], greater than 100 µM; in [5], 85.5 µM; in [6] it was greater than 100 µM. Besides, the TGI in test [7] is greater than 100 µM; in [9], greater than 100 µM; in test [10], 52.2 µM; in test [11] it was greater than 100 µM.
